Measurements reported in US20040097587A1, “Compositions and methods of treatment of ulcerating diseases, burns, and related conditions” (priority 2003, published 2004).

System: venous ulcer
Experiment: Case of a person with venous ulcer and related conditions treated with oral isotretinoin
Format: in vivo, human
Settings: approximately 80 milligrams per day for two months
From the text: Preferred unit dosage formulations are those containing a daily dose or unit, daily sub-dose, or an appropriate fraction thereof, of the administered ingredient. […] Acad. of Dermatol, 45, 462-465, which is herein incorporated by reference.

## CC1=C(/C=C/C(C)=C/C=C/C(C)=C\C(=O)O)C(C)(C)CCC1 [isotretinoin, 13-cis-retinoic acid]
Person having venous ulcer and related conditions for five months
  overall clinical outcome of venous ulcer and related conditions: significant improvement
person
  lesions: improved
  venous ulcer healing: healed
  vessel prominence: significantly decreased
